Each structure is given as a SMILES string.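 Five compound concentrations were applied to cells in 96-well plates for 48 hours; endpoints were derived by simple linear interpolation of the resulting dose-response curve. GI50 is the concentration that inhibits growth by half.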 Calls of active or inactive are those of the source. Cut-off read from the data, not from the text of the source: active = GI50 up to about 1.1 µM and inactive = higher.

Common to all, as to assay: DTP human tumour cell line panel, 48 h
Assay [1] relates to MDA-MB-435.
The test system of assay [2] is OVCAR-4.
The test system of assay [3] is MCF7.
Assay [4] concerns SK-MEL-5.
Assay [5] has as its system NCI/ADR-RES.
For assay [6], the system named is ACHN.
Assay [7] concerns COLO 205.
Assay [8] relates to HOP-92.
The test system of assay [9] is HCT-116.
Assay [10] has as its system DU-145.
Assay [11] concerns HCC 2998.
Assay [12] deals with SF-295.
Assay [13] concerns HT-29.
Assay [14] deals with A498.
The subject of assay [15] is RPMI-8226.
Assay [16] deals with Malme-3M.
The test system of assay [17] is NCI-H226.
The test system of assay [18] is HOP-62.
Assay [19] has as its system U-251.
Assay [20] has as its system MOLT-4.

As to `CCOC(=O)C(C(=O)OCC)C1C=CCC2c3ccccc3COCC21` (stereo not given), the GI50 in [1] was 36.9 µM (inactive); in [2] it was 28.6 µM (inactive); in [3], 31.8 µM (inactive); in assay [4], 19.1 µM (inactive); in assay [5], 28.2 µM (inactive); in assay [6] it was 40.2 µM (inactive). Moreover, the GI50 in assay [7] is 23.7 µM (inactive); in [8], > 100 µM (inactive); in [9], 41.1 µM (inactive); in [10], > 100 µM (inactive); in [11], 52.5 µM (inactive); in [12] it was 43.6 µM (inactive). The GI50 is 54.7 µM (inactive) in assay [13]; 38.7 µM (inactive) in assay [14]; 41.5 µM (inactive) in assay [15]; 31.7 µM (inactive) in assay [16]; 73.8 µM (inactive) in [17]; > 100 µM (inactive) in assay [18]. For the same compound, the results for the GI50 in [19] and in assay [20] were 57.9 µM (inactive) and 40.9 µM (inactive), respectively.

As for `COc1cc(C2SCC(=O)N2c2ccc(-n3c(-c4ccccc4)nc4ccccc4c3=O)cc2)ccc1O` (stereo not given), the GI50 was > 100 µM (inactive) in [1]; 65.6 µM (inactive) in [2]; 70 µM (inactive) in assay [3]; 49.3 µM (inactive) in assay [4]; 34.3 µM (inactive) in [5]; > 100 µM (inactive) in [6]. The GI50 was > 100 µM (inactive) in assay [7]; 13.3 µM (inactive) in assay [8]; 50.1 µM (inactive) in assay [9]; > 100 µM (inactive) in assay [10]; 58.3 µM (inactive) in assay [11]; 84.5 µM (inactive) in assay [12]. Besides, the GI50 in assay [13] was > 100 µM (inactive); in [14], > 100 µM (inactive); in assay [15], 76.4 µM (inactive); in [16], 54.7 µM (inactive); in assay [17], 5.01 µM (inactive); in assay [18], > 100 µM (inactive). For the same compound, the GI50 in assay [19] is 84.9 µM (inactive); in assay [20] it was 24.2 µM (inactive).

As for `CCOC(=O)c1c(C)[nH]c2c1c(CN(C)C)c(O)c1nc(C)c(C)nc12`, the GI50 is 25.6 µM (inactive) in assay [1]; 27.2 µM (inactive) in assay [2]; 17.9 µM (inactive) in [3]; 15 µM (inactive) in assay [4]; 24.2 µM (inactive) in [5]; 20.5 µM (inactive) in [6]. Besides, the GI50 in assay [7] was 14.5 µM (inactive); in assay [8] it was 31.8 µM (inactive); in assay [9], 17.2 µM (inactive); in assay [10] it was 26.2 µM (inactive); in assay [11], 21.4 µM (inactive); in [12], 20.2 µM (inactive). Also, the GI50 in [13] is 21.6 µM (inactive); in assay [14], 15.2 µM (inactive); in [15] it was 18.5 µM (inactive); in assay [16], 18.5 µM (inactive); in [17], 22.2 µM (inactive); in assay [18] it was 20 µM (inactive). Moreover, the GI50 in assay [19] was 24.3 µM (inactive); in assay [20] it was 16 µM (inactive).

Take `c1ccc([P+](Cc2ccc(C[P+](c3ccccc3)(c3ccccc3)c3ccccc3)cc2)(c2ccccc2)c2ccccc2)cc1`: the GI50 is 42.7 µM (inactive) in [1]; 48.1 µM (inactive) in [2]; 51.4 µM (inactive) in assay [3]; 27.2 µM (inactive) in [4]; > 100 µM (inactive) in assay [5]; > 100 µM (inactive) in [6]. Further, the GI50 was 31.2 µM (inactive) in [7]; 26.3 µM (inactive) in assay [8]; 12.4 µM (inactive) in assay [9]; 86.3 µM (inactive) in [10]; 91 µM (inactive) in [11]; 35.6 µM (inactive) in assay [12]. Also, the GI50 in assay [13] was 25 µM (inactive); in [14], > 100 µM (inactive); in assay [15] it was 43 µM (inactive); in assay [16], 52.7 µM (inactive); in assay [17] it was > 100 µM (inactive); in assay [18], 69.5 µM (inactive). Moreover, the GI50 in assay [19] was 21.2 µM (inactive); in assay [20] it was > 100 µM (inactive).

Turning to `COc1cc(OC)cc(C(=O)NC2=C(Cl)C(=O)c3ccccc3C2=O)c1`, the GI50 in [1] is 1.95 µM (inactive); in assay [2], 1.79 µM (inactive); in [3], 2.84 µM (inactive); in assay [4], 2.04 µM (inactive); in assay [5], 2.28 µM (inactive); in assay [6], 0.78 µM (active). The GI50 in assay [7] is 2.52 µM (inactive); in assay [8] it was 1.45 µM (inactive); in assay [9], 0.668 µM (active); in [10], 4.58 µM (inactive); in [11] it was 3.48 µM (inactive); in [12], 2.92 µM (inactive). The GI50 in [13] was 4.67 µM (inactive); in [14], 14.1 µM (inactive); in assay [15] it was 0.706 µM (active); in assay [16], 1.74 µM (inactive); in assay [17] it was 3.3 µM (inactive); in assay [18] it was 12.8 µM (inactive). For the same compound, the GI50 in assay [19] was 1.94 µM (inactive); in assay [20] it was 1.67 µM (inactive).

With `COc1cc2c(cc1OC)C(=O)N(c1ccc(OCCN3CCCC3)cc1)C2=O`, the GI50 in assay [1], in assay [2], in [3], in [4], in assay [5] and in [6] was > 100 µM (inactive) in each case. Moreover, the GI50 in assay [7], in [8], in assay [9], in assay [10], in assay [11] and in assay [12] was > 100 µM (inactive) each time. Further, the GI50 in [13] is > 100 µM (inactive); in assay [14], > 100 µM (inactive); in [15], > 100 µM (inactive); in assay [16], 20.8 µM (inactive); in assay [17], > 100 µM (inactive); in [18] it was > 100 µM (inactive). Further, the GI50 in assay [19] and in assay [20] was > 100 µM (inactive) each time.

Regarding `CC(=O)c1ccc(Nc2nc3ccccc3c3occc23)cc1`, the GI50 in assay [1] is 3.08 µM (inactive); in [2], 1.79 µM (inactive); in assay [3], 8.22 µM (inactive); in assay [4], 12.1 µM (inactive); in assay [5], 11.9 µM (inactive); in assay [6], 11.1 µM (inactive). Also, the GI50 in [7] was 8.99 µM (inactive); in assay [8], 12.8 µM (inactive); in assay [9], 11.4 µM (inactive); in assay [10], 16.6 µM (inactive); in assay [11], 6.89 µM (inactive); in assay [12], 6.31 µM (inactive). Besides, the GI50 in assay [13] was 4.16 µM (inactive); in assay [14] it was 2.99 µM (inactive); in assay [15] it was 5.48 µM (inactive); in assay [16], 23.3 µM (inactive); in assay [17], 17 µM (inactive); in assay [18], 12.4 µM (inactive). The GI50 in assay [19] is 18.8 µM (inactive); in assay [20], 1.85 µM (inactive).

Take `Cc1ccc(S(=O)(=O)[C@@H](Cl)[C@H]2N=C(Cl)NN=C2c2ccccc2)cc1`: the GI50 is 22.1 µM (inactive) in [1]; 13.9 µM (inactive) in assay [2]; 26.9 µM (inactive) in assay [3]; 15.4 µM (inactive) in assay [4]; 21.4 µM (inactive) in [5]; 33.7 µM (inactive) in assay [6]. Moreover, the GI50 in assay [7] was 26.9 µM (inactive); in [8], 23 µM (inactive); in assay [9], 25.1 µM (inactive); in assay [10] it was 23.2 µM (inactive); in [11], 33.8 µM (inactive); in assay [12], 41.4 µM (inactive). Moreover, the GI50 in assay [13] is 33.5 µM (inactive); in [14], 15.5 µM (inactive); in assay [15], 27.6 µM (inactive); in [16] it was 20.7 µM (inactive); in [17] it was 26.8 µM (inactive); in assay [18], 20 µM (inactive). For the same compound, the GI50 was 21.5 µM (inactive) in [19] and 20.6 µM (inactive) in assay [20].

On to `CC(=O)Nc1ccc2c3c(cc(O)c2c1)N(C(=O)CCCCCCC(=O)N1CC(CCl)c2c1cc(O)c1cc(NC(C)=O)ccc21)CC3CCl` (stereo not given), for which the GI50 in [1] is 0.0127 µM (active); in assay [2] it was 0.0419 µM (active); in assay [3] it was < 0.01 µM (active); in assay [4], < 0.01 µM (active); in [5] it was 0.673 µM (active); in assay [6], < 0.01 µM (active). For the same compound, the GI50 is 0.0105 µM (active) in [7]; < 0.0117 µM (active) in [8]; < 0.01 µM (active) in assay [9]; < 0.01 µM (active) in assay [10]; < 0.01 µM (active) in [11]; < 0.01 µM (active) in assay [12]. The GI50 in assay [13] is 0.0172 µM (active); in [14], < 0.01 µM (active); in assay [15], 0.059 µM (active); in [16], < 0.01 µM (active); in [17], < 0.01 µM (active); in [18] it was < 0.0116 µM (active). Further, the GI50 in [19] and in assay [20] was < 0.01 µM (active) in each case.

Regarding `CN1CCN(CCn2c3c4ccccc4ccc3c3oc(=O)c4ccccc4c32)CC1`, the GI50 in [1] was 1.88 µM (inactive); in assay [2], 2.26 µM (inactive); in assay [3], 1.55 µM (inactive); in assay [4] it was 1.78 µM (inactive); in assay [5] it was 6.87 µM (inactive); in assay [6] it was 3.05 µM (inactive). Further, the GI50 in assay [7] is 1.8 µM (inactive); in [8], 5.85 µM (inactive); in assay [9] it was 1.88 µM (inactive); in [10], > 10 µM (inactive); in assay [11], 1.87 µM (inactive); in assay [12] it was 4.21 µM (inactive). The GI50 was 1.36 µM (inactive) in assay [13]; 5.09 µM (inactive) in [14]; 2.61 µM (inactive) in assay [15]; 15.1 µM (inactive) in [16]; 16.6 µM (inactive) in assay [17]; 2.07 µM (inactive) in assay [18]. The GI50 in [19] is 2.49 µM (inactive); in assay [20], 1.5 µM (inactive).

Values taken from ChEMBL document CHEMBL1201862, “PubChem BioAssay data set” (2004).
